Common to all, as to experiment: relative viability (nuclei count vs DMSO), 5 days (fraction); higher = more cells survive
Compound in test [1]: CS(=O)(=O)N1CCN(Cc2cc3nc(-c4cccc5[nH]ncc45)nc(N4CCOCC4)c3s2)CC1 [Pictilisib]
Put shortly:
(§1)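 Nuclei counted with MetaXpress define viability as the ratio of treated to vehicle wells, given as a median across plates. The lung cancer cell lines were in 1536-well plates, pinned with five √10-spaced library-drug doses and imaged at 4× after 5 days and Hoechst staining. Plates passed with control CV below 25% and at least one doubling.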

Compound in test [2]: NC1(c2ccc(-c3nc4ccn5c(=O)[nH]nc5c4cc3-c3ccccc3)cc2)CCC1 [MK-2206]
Put shortly: as §1

Compound in test [3]: CS(=O)(=O)N1CCN(Cc2cc3nc(-c4cccc5[nH]ncc45)nc(N4CCOCC4)c3s2)CC1 [Pictilisib] + N=C(N)NC(=N)NCCc1ccccc1 [Phenformin] (partner 250 µM)
The gist of the method: (§2)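 Lung cancer cell lines were seeded in 1536-well plates and dosed by pin tool the next day, with either a single drug or a fixed anchor-drug dose combined with five library-drug doses (not always all listed) spaced in √10 steps. Five days later, one step fixed the cells and stained their nuclei (final 0.05% Triton X-100, 1% formaldehyde, 1 ug/ml Hoechst), and nuclei were counted on 4× images. Relative viability is the nuclei count in treated wells divided by the count in vehicle wells, and each value is the median of duplicate plates.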

Compound in test [4]: NC1(c2ccc(-c3nc4ccn5c(=O)[nH]nc5c4cc3-c3ccccc3)cc2)CCC1 [MK-2206] + O=C(CCCCCCC(=O)Nc1ccccc1)NO [Vorinostat] (partner 1 µM)
Put shortly:
as §2

In the supplement of paper PMC10307832 one finds relative viability data, which are given here for two cell lines.

NCI-H2023: the relative viability worked out at 1.04 in test [1] (0.02 µM); 0.831 in test [1] (0.06325 µM); 0.55 in test [1] (0.6325 µM); 0.262 in test [1] (1 µM, anchor plate); 0.18 in test [1] (2 µM); 0.972 in test [2] (0.01 µM). Also, the relative viability was 0.946 in test [2] (0.03162 µM); 0.757 in test [2] (0.3162 µM); 0.605 in test [2] (1 µM); 0.43 in test [3] (first compound 0.02 µM); 0.376 in test [3] (first compound 0.06325 µM); 0.275 in test [3] (first compound 0.6325 µM). Moreover, the relative viability is 0.169 in test [3] (first compound 2 µM); 0.54 in test [4] (first compound 0.01 µM); 0.428 in test [4] (first compound 0.03162 µM); 0.431 in test [4] (first compound 0.3162 µM); 0.391 in test [4] (first compound 1 µM).

In the case of HOP-62, the relative viability in test [1] (0.02 µM) is 1.04; in test [1] (0.06325 µM), 1.07; in test [1] (0.6325 µM), 0.97; in test [1] (1 µM, anchor plate), 0.743; in test [1] (2 µM) it was 0.941; in test [2] (0.01 µM), 0.91. In addition, the relative viability is 1.08 in test [2] (0.03162 µM); 0.993 in test [2] (0.3162 µM); 0.918 in test [2] (1 µM); 0.681 in test [3] (first compound 0.02 µM); 0.701 in test [3] (first compound 0.06325 µM); 0.717 in test [3] (first compound 0.6325 µM). For the same cell line, the relative viability is 0.598 in test [3] (first compound 2 µM); 0.491 in test [4] (first compound 0.01 µM); 0.632 in test [4] (first compound 0.03162 µM); 0.492 in test [4] (first compound 0.3162 µM); 0.656 in test [4] (first compound 1 µM).
